According to patent US12497365B2, “4-pyridinyl formamide compound or derivative thereof, preparation method therefor, herbicidal composition and use thereof” (Qingdao Kingagroot Chemical Compound Co., Ltd., priority 2019, dated 2025):

Columns and labels:
Experiment in all cases: Weeding effect in post-emergence stage
Type in all cases: in vivo
Settings in all cases: active ingredient 2000 g/ha, 3 weeks after application, fresh weight control rate
Abutilon theophrasti = tested on: Abutilon theophrasti
Summary of the method: (§1)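 Greenhouse-grown weeds at the 2-3 leaf stage, about 2 weeks after sowing, were sprayed with compound at 2000-125 g/ha. The spray solution was made from acetone with Tween 80 and 1.5 L/ha methyl oleate concentrate as synergist. Fresh-weight growth control was scored 3 weeks after treatment.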

Descurainia sophia = tested on: Descurainia sophia
Summary of the method: as §1

[1] = tested on: Amaranthus retroflexus L.
Summary of the method: as §1

Chenopodium album = tested on: Chenopodium album
Summary of the method: as §1

| Structure (SMILES) | Weeding effect, activity level (growth control rate), Abutilon theophrasti (Abutilon theophrasti) | Weeding effect, activity level (growth control rate), Descurainia sophia (Descurainia sophia) | Weeding effect, activity level (growth control rate), Amaranthus retroflexus L. [1] | Weeding effect, activity level (growth control rate), Chenopodium album (Chenopodium album) |
| --- | --- | --- | --- | --- |
| Cn1nnnc1NC(=O)c1ccnc(-c2cccc(Br)c2F)c1Cl [Compound 1-97] | 5 (Level 5: growth control rate is above 85%) | 5 (Level 5: growth control rate is above 85%) | 5 (Level 5: growth control rate is above 85%) | 5 (Level 5: growth control rate is above 85%) |
| COC(=O)c1cc(-c2nccc(C(=O)Nc3nnnn3C)c2Cl)ccc1Cl [Compound 1-98] | 5 (Level 5: growth control rate is above 85%) | 5 (Level 5: growth control rate is above 85%) | 5 (Level 5: growth control rate is above 85%) | 5 (Level 5: growth control rate is above 85%) |
| COc1ccc(-c2nccc(C(=O)Nc3nnnn3C)c2Cl)cc1C=O [Compound 1-99] | 5 (Level 5: growth control rate is above 85%) | 5 (Level 5: growth control rate is above 85%) | 5 (Level 5: growth control rate is above 85%) | 5 (Level 5: growth control rate is above 85%) |
| Cn1nnnc1NC(=O)c1ccnc(-c2cc(C(=O)O)cc([N+](=O)[O-])c2)c1Cl [Compound 1-100] | 5 (Level 5: growth control rate is above 85%) | 5 (Level 5: growth control rate is above 85%) | 5 (Level 5: growth control rate is above 85%) | 5 (Level 5: growth control rate is above 85%) |
| Cn1nnnc1NC(=O)c1ccnc(-c2ccc(Cl)cc2C(F)(F)F)c1Cl [Compound 1-101] | 5 (Level 5: growth control rate is above 85%) | 5 (Level 5: growth control rate is above 85%) | 5 (Level 5: growth control rate is above 85%) | 5 (Level 5: growth control rate is above 85%) |
| COc1ccc(-c2nccc(C(=O)Nc3nnnn3C)c2Cl)c(Cl)c1 [Compound 1-102] | 5 (Level 5: growth control rate is above 85%) | 5 (Level 5: growth control rate is above 85%) | 5 (Level 5: growth control rate is above 85%) | 5 (Level 5: growth control rate is above 85%) |
| COc1ccc(Cl)c(-c2nccc(C(=O)Nc3nnnn3C)c2Cl)c1 [Compound 1-103] | 5 (Level 5: growth control rate is above 85%) | 5 (Level 5: growth control rate is above 85%) | 5 (Level 5: growth control rate is above 85%) | 5 (Level 5: growth control rate is above 85%) |
| COc1ccc(-c2nccc(C(=O)Nc3nnnn3C)c2Cl)c(C)c1 [Compound 1-104] | 5 (Level 5: growth control rate is above 85%) | 5 (Level 5: growth control rate is above 85%) | 5 (Level 5: growth control rate is above 85%) | 5 (Level 5: growth control rate is above 85%) |
| COc1ccc(-c2nccc(C(=O)Nc3nnnn3C)c2Cl)c(OC)c1 [Compound 1-105] | 5 (Level 5: growth control rate is above 85%) | 5 (Level 5: growth control rate is above 85%) | 5 (Level 5: growth control rate is above 85%) | 5 (Level 5: growth control rate is above 85%) |
| Cn1nnnc1NC(=O)c1ccnc(-c2ccc(OCc3ccccc3)cc2F)c1Cl [Compound 1-106] | 5 (Level 5: growth control rate is above 85%) | 5 (Level 5: growth control rate is above 85%) | 5 (Level 5: growth control rate is above 85%) | 5 (Level 5: growth control rate is above 85%) |
| Cn1nnnc1NC(=O)c1ccnc(-c2ccc(Oc3ccccc3)c(Cl)c2)c1Cl [Compound 1-107] | 5 (Level 5: growth control rate is above 85%) | 5 (Level 5: growth control rate is above 85%) | 5 (Level 5: growth control rate is above 85%) | 5 (Level 5: growth control rate is above 85%) |
| Cn1nnnc1NC(=O)c1ccnc(-c2cc(-c3ccccc3)cc(-c3ccccc3)c2)c1Cl [Compound 1-108] | 5 (Level 5: growth control rate is above 85%) | 5 (Level 5: growth control rate is above 85%) | 5 (Level 5: growth control rate is above 85%) | 5 (Level 5: growth control rate is above 85%) |
| Cn1nnnc1NC(=O)c1ccnc(-c2cc(F)c(F)c(F)c2)c1Cl [Compound 1-109] | 5 (Level 5: growth control rate is above 85%) | 5 (Level 5: growth control rate is above 85%) | 5 (Level 5: growth control rate is above 85%) | 5 (Level 5: growth control rate is above 85%) |
| COc1c(Cl)ccc(-c2nccc(C(=O)Nc3nnnn3C)c2Cl)c1F [Compound 1-110] | 5 (Level 5: growth control rate is above 85%) | 5 (Level 5: growth control rate is above 85%) | 5 (Level 5: growth control rate is above 85%) | 5 (Level 5: growth control rate is above 85%) |
| Cn1nnnc1NC(=O)c1ccnc(-c2cccc3ccccc23)c1Cl [Compound 1-111] | 5 (Level 5: growth control rate is above 85%) | 5 (Level 5: growth control rate is above 85%) | 5 (Level 5: growth control rate is above 85%) | 5 (Level 5: growth control rate is above 85%) |
| Cn1nnnc1NC(=O)c1ccnc(-c2ccc3ccccc3c2)c1Cl [Compound 1-112] | 5 (Level 5: growth control rate is above 85%) | 5 (Level 5: growth control rate is above 85%) | 5 (Level 5: growth control rate is above 85%) | 5 (Level 5: growth control rate is above 85%) |
| Cn1nnnc1NC(=O)c1ccnc(-c2ccc(F)c3ccccc23)c1Cl [Compound 1-113] | 5 (Level 5: growth control rate is above 85%) | 5 (Level 5: growth control rate is above 85%) | 5 (Level 5: growth control rate is above 85%) | 5 (Level 5: growth control rate is above 85%) |
| Cn1nnnc1NC(=O)c1ccnc(-c2cccc3cnccc23)c1Cl [Compound 1-114] | 5 (Level 5: growth control rate is above 85%) | 5 (Level 5: growth control rate is above 85%) | 5 (Level 5: growth control rate is above 85%) | 5 (Level 5: growth control rate is above 85%) |
| Cn1nnnc1NC(=O)c1ccnc(-c2cc3ccccc3c3ccccc23)c1Cl [Compound 1-115] | 5 (Level 5: growth control rate is above 85%) | 5 (Level 5: growth control rate is above 85%) | 5 (Level 5: growth control rate is above 85%) | 5 (Level 5: growth control rate is above 85%) |
